SMILES strings stand for the structures.

From patent US9718804B2, “GSK-3 inhibitors” (BRISTOL-MYERS SQUIBB COMPANY, priority 2013, dated 2017) come the findings set out here.

Assay [1] has as its system pTau. The experiment in a line: pTau assay (no method described). The format is cell-based.
For assay [2], the target named is GSK3β (Homo sapiens, UniProt P49841). Briefly: GSK3β kinase assay (Caliper LabChip, fluoresceinated peptide substrate). Format: biochemical. The conditions noted are these: first value of the cell; 250 pM enzyme, 20 uM ATP, 20 hours at room temperature; read-out: GSK3β/α (nM): GSK3β IC50. The method, then: (§1) The kinase assay was performed in V-bottom 384-well plates. […] The reaction was incubated at room temperature for 20 hours and terminated by adding 45 μl of 35 mM EDTA to each sample. The reaction mixture was analyzed on the Caliper LabChip3000 (Caliper, Hopkinton, Mass.) by electrophoretic separation of the unphosphorylated substrate and phosphorylated product. […] Compounds were dissolved at 10 mM in dimethylsulfoxide (DMSO) and evaluated at eleven concentrations. IC50 values were derived by non-linear regression analysis.

The target of assay [3] is GSK3α (Homo sapiens, UniProt P49840). Briefly: GSK3α kinase assay (Caliper LabChip, fluoresceinated peptide substrate). The format is biochemical. As to the method: as §1
Chain of GSK3α (P49840 whole entry, species assumed): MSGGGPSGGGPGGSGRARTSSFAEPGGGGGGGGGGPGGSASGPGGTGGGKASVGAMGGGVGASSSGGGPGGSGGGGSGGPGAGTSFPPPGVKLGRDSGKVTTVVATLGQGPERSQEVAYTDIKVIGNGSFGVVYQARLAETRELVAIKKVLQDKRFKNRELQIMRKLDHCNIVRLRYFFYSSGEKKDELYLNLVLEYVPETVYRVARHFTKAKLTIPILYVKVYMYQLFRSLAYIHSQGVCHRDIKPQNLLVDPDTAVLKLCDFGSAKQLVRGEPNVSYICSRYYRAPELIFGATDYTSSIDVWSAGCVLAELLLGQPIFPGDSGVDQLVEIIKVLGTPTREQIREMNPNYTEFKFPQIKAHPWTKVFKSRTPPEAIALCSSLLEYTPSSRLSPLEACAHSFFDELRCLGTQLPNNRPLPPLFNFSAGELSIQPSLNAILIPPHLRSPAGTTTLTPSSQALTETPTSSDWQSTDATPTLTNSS

Chain of GSK3β (P49841 whole entry, species assumed): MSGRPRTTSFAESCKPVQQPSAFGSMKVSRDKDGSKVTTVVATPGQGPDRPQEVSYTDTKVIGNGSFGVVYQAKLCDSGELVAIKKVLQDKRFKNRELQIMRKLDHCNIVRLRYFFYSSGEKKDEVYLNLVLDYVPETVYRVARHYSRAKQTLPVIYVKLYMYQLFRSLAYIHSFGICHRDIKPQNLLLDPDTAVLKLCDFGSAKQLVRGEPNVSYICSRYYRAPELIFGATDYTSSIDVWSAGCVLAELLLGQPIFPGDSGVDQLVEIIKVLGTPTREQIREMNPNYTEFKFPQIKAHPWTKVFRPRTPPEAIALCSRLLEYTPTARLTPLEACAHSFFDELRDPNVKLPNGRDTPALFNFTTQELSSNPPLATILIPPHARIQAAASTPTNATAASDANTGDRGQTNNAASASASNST

Take `O=C(Nc1cnccc1C1(O)CCCCC1)c1ccnc(Nc2ccc(C(F)(F)F)cn2)c1` [Example 38, N-(4-(1-Hydroxycyclohexyl)pyridin-3-yl)-2-((5-(trifluoromethyl)pyridin-2-yl)amino)isonicotinamide]: the IC50 in assay [1] was 8.8 nM; in assay [2], 1.1 nM; in assay [3], 0.71 nM.
Consider `O=C(Nc1cnccc1C1=CCCCO1)c1ccnc(Nc2ccc(C(F)(F)F)cn2)c1` [Example 39, N-(4-(3,4-Dihydro-2H-pyran-6-yl)pyridin-3-yl)-2-((5-(trifluoromethyl)pyridin-2-yl)amino)isonicotinamide], for which the IC50 was 140 nM in assay [1], 1.2 nM in assay [2] and 0.93 nM in assay [3].
Taken in the same sequence, the figures for `O=C(Nc1cnccc1C1OCCO1)c1ccnc(Nc2ccc(C(F)(F)F)cn2)c1` [Example 40, N-(4-(1,3-Dioxolan-2-yl)pyridin-3-yl)-2-((5-(trifluoromethyl)pyridin-2-yl)amino)isonicotinamide] were 3300 nM, 23 nM and 46 nM.
Taken in the same sequence, the figures for `O=C(Nc1cnccc1OCC(F)F)c1ccnc(Nc2ccc(C(F)(F)F)cn2)c1` [Example 42, N-(4-(2,2-Difluoroethoxy)pyridin-3-yl)-2-((5-(trifluoromethyl)pyridin-2-yl)amino)isonicotinamide] were 21 nM, 0.49 nM and 0.27 nM.
On the same counts, the results for `CC1(COc2ccncc2NC(=O)c2ccnc(Nc3ccc(C(F)(F)F)cn3)c2)CC1` [Example 44, N-(4-((1-Methylcyclopropyl)methoxy)pyridin-3-yl)-2-((5-(trifluoromethyl)pyridin-2-yl)amino)isonicotinamide] are 52 nM, 1.4 nM and 0.33 nM.
Consider `O=C(Nc1cnccc1C1(F)COC1)c1ccnc(Nc2ccc(C(F)(F)F)cn2)c1` [Example 45, N-(4-(3-Fluorooxetan-3-yl)pyridin-3-yl)-2-((5-(trifluoromethyl)pyridin-2-yl)amino)isonicotinamide], for which the figures for the IC50 in assay [1], in assay [2] and in assay [3] were 150 nM, 17 nM and 11 nM, respectively.
Consider `O=C(Nc1cnccc1OCCN1CCCC1)c1ccnc(Nc2ccc(C(F)(F)F)cn2)c1` [Example 46, N-(4-(2-(Pyrrolidin-1-yl)ethoxy)pyridin-3-yl)-2-((5-(trifluoromethyl)pyridin-2-yl)amino)isonicotinamide], for which the IC50 was found to be 4300 nM in assay [1], 150 nM in assay [2] and 75 nM in assay [3].
With `O=C(Nc1cnccc1OCCN1CCOCC1)c1ccnc(Nc2ccc(C(F)(F)F)cn2)c1` [Example 47, N-(4-(2-Morpholinoethoxy)pyridin-3-yl)-2-((5-(trifluoromethyl)pyridin-2-yl)amino)isonicotinamide], the IC50 was determined as 420 nM in assay [1], 18 nM in assay [2] and 5.6 nM in assay [3].
On the same counts, the results for `O=C(Nc1cnccc1-c1ccc(F)cc1)c1ccnc(Nc2cccc(Cl)n2)c1` [Example 48, 2-((6-Chloropyridin-2-yl)amino)-N-(4-(4-fluorophenyl)pyridin-3-yl)isonicotinamide] are 270 nM, 2.9 nM and 1.9 nM.
On the same counts, the results for `O=C(Nc1cnccc1-c1ccccc1F)c1ccnc(Nc2ccc(C(F)(F)F)cn2)c1` [Example 49, N-(4-(2-Fluorophenyl)pyridin-3-yl)-2-((5-(trifluoromethyl)pyridin-2-yl)amino)isonicotinamide] are 53 nM, 0.65 nM and 0.32 nM.
For the compound `O=C(Nc1cnccc1-c1ccc(F)cc1)c1ccnc(Nc2ccc(C(F)(F)F)cn2)c1` [Example 50, N-(4-(4-Fluorophenyl)pyridin-3-yl)-2-((5-(trifluoromethyl)pyridin-2-yl)amino)isonicotinamide], the results for the IC50 in assay [1], in assay [2] and in assay [3] were 54 nM, 2.1 nM and 0.86 nM, respectively.
For the compound `O=C(Nc1cnccc1-c1ccc(Cl)cc1)c1ccnc(Nc2ccc(C(F)(F)F)cn2)c1` [Example 51, N-(4-(4-Cholorophenyl)pyridin-3-yl)-2-((5-(trifluoromethyl)pyridin-2-yl)amino)isonicotinamide], the IC50 in assay [1] was 266 nM; in assay [2] it was 9.9 nM; in assay [3], 6.9 nM.
Taken in the same sequence, the figures for `N#Cc1ccc(-c2ccncc2NC(=O)c2ccnc(Nc3ccc(C(F)(F)F)cn3)c2)c(F)c1` [Example 52, N-(4-(2-Fluoro-4-cyano-phenyl)pyridin-3-yl)-2-((5-(trifluoromethyl)pyridin-2-yl)amino)isonicotinamide] were 35 nM, 3.6 nM and 1.5 nM.
On the same counts, the results for `O=C(Nc1cnccc1-c1ccc(F)cc1C(F)(F)F)c1ccnc(Nc2ccc(C(F)(F)F)cn2)c1` [Example 53, N-(4-(2-Trifluoromethyl-4-fluoro-phenyl)pyridin-3-yl)-2-((5-(trifluoromethyl)pyridin-2-yl)amino)isonicotinamide] are 8.3 nM, 0.51 nM and 0.57 nM.
Taken in the same sequence, the figures for `O=C(Nc1cnccc1-c1ccc(F)cc1F)c1ccnc(Nc2ccc(C(F)(F)F)cn2)c1` [Example 54, N-(4-(2,4-Difluoro-phenyl)pyridin-3-yl)-2-((5-(trifluoromethyl)pyridin-2-yl)amino)isonicotinamide] were 57 nM, 2.8 nM and 0.96 nM.
On to `COc1ccc(-c2ccncc2NC(=O)c2ccnc(Nc3ccc(C(F)(F)F)cn3)c2)c(F)c1` [Example 55, N-(4-(2-Fluoro-4-methoxy-phenyl)pyridin-3-yl)-2-((5-(trifluoromethyl)pyridin-2-yl)amino)isonicotinamide], for which the IC50 in assay [1] turned out to be 86 nM; in assay [2], 3.2 nM; in assay [3] it was 0.89 nM.
Turning to `N#Cc1ccc(Nc2cc(C(=O)Nc3cnccc3-c3ccc(F)cc3)ccn2)nc1` [Example 56, 2-((5-Cyanopyridin-2-yl)amino)-N-(4-(4-fluorophenyl)pyridin-3-yl)isonicotinamide], the IC50 in assay [1] stood at 36 nM; in assay [2], 2.4 nM; in assay [3], 0.98 nM.
On to `N#Cc1ccc(Nc2cc(C(=O)Nc3cnccc3-c3ccc(F)cc3F)ccn2)nc1` [Example 57, 2-((5-Cyanopyridin-2-yl)amino)-N-(4-(2,4-difluorophenyl)pyridin-3-yl)isonicotinamide], for which the IC50 in assay [1] was found to be 19 nM; in assay [2], 1.3 nM; in assay [3], 0.59 nM.
Taken in the same sequence, the figures for `O=C(Nc1cnccc1-c1ccc(F)cc1)c1ccnc(Nc2ccc(Cl)cn2)c1` [Example 58, 2-((5-Chloropyridin-2-yl)amino)-N-(4-(4-fluorophenyl)pyridin-3-yl)isonicotinamide] were 57 nM, 0.86 nM and 0.36 nM.
On the same counts, the results for `O=C(Nc1cnccc1-c1ccccc1)c1ccnc(Nc2ccc(Cl)cn2)c1` [Example 59, 2-((5-Chloropyridin-2-yl)amino)-N-(4-phenylpyridin-3-yl)isonicotinamide] are 45 nM, 0.9 nM and 0.39 nM.
